PMC8745345, “Hydroxy Pentacyclic Triterpene Acid, Kaempferol, Inhibits the Human 5-Hydroxytryptamine Type 3A Receptor Activity” (International Journal of Molecular Sciences, 2022)
Residue numbers refer to the chain shown, from its start.

How the values were obtained:
Format in all cases: cell-based
[1] = target: T1, human 5-HT3A receptor (wild type) (Homo sapiens, UniProt P46098); test: Two-electrode voltage clamp, inhibition of serotonin-induced inward current (I5-HT) in Xenopus oocytes expressing wild-type receptor
T1 construct: expressed in transfected cells; host or cells: Xenopus oocytes injected with in vitro transcribed mRNA
T1 sequence (P46098 24-478): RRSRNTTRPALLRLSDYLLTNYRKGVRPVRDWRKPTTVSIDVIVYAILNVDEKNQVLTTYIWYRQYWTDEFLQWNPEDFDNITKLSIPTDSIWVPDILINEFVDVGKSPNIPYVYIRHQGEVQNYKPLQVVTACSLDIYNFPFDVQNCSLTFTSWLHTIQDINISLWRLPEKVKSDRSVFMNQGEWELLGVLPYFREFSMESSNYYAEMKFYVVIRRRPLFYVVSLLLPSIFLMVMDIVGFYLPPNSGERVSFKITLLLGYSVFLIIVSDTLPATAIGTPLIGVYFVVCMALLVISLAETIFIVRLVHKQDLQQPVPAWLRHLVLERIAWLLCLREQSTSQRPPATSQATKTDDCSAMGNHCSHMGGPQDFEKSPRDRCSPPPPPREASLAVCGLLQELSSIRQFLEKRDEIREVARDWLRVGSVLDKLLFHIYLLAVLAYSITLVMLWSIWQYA
Procedure: (§1) Human 5-HT3A receptor cDNA was linearized using restriction enzyme XhoI. In vitro transcription was performed using an mMESSAGE mMACHINE T7 Transcription Kit (Thermo Fisher Scientific, Waltham, MA, USA). The final mRNA product was dissolved in 1X Diethyl Pyrocarbonate (RNase-free water) at a final concentration of 1 μg/μL and kept in a deep-freezer at −80 °C until used.
(§2) Xenopus oocytes were used in this study as cells for expression of human 5-HT3A receptor. All female frogs used in this experiment were obtained from the Korean Xenopus Resource Center for Research (KXRCR000001). […] Xenopus oocytes were extracted during ice incubation state and isolated as single oocytes using collagenase II (2 mg/mL) in OR2 buffer (82.5 mM NaCl, 2 mM KCl, 1 mM MgCl2, 5 mM HEPES, pH 7.4). Isolated oocytes were incubated with ND96 incubation buffer (96 mM NaCl, 2 mM KCl, 1 mM MgCl2, 1.8 mM CaCl2, 5 mM HEPES, 2.5 mM sodium pyruvate, and 50 mg/mL gentamycin, pH 7.4) at 18 °C until the experiment was performed. Human 5-HT3A receptor mRNA was injected into oocytes using a nanoinjector (Drummond Scientific, Broomall, PA, USA) with a mineral-filled 10 μL microdispenser (VWR, Piscataway, NJ, USA).
(§3) To confirm the KAE activity on the human 5-HT3A receptor, a two-electrode voltage clamp (OC-725C; Warner Instruments, Hamden, CT, USA) with a Digitata 1550A was used. For the experiment, induced-inward current was converted to digital data with pClamp 10 software (Axon Instruments, Union City, CA, USA). All experiments were performed at room temperature using an oocyte clamp equipped with Digidata. The membrane holding potential was −80 mV.
(§4) The voltage relationship experiment for confirming the relationship between induce-inward current and voltage, the voltage was varied from −80 mV to +60 mV using a ramp protocol. Each microelectrode was filled with 3 M KCl having a resistance of 0.2 MΩ. Serotonin and KAE applied in the experiment were diluted in ND96 bath solution (96 mM NaCl, 2 mM KCl, 1 mM MgCl2, 1.8 mM CaCl2, and 5 mM HEPES, pH 7.5) to specified concentration. The rate of application of the reagent was 2 mL per minute. All recording data were analyzed using Clampfit 9.0 (Molecular Devices, San Jose, CA, USA).
All presented experiments were performed at least three times for scientific verification. Data are presented as mean ± S.E.M (standard error of the mean). Induced-inward current data were analyzed with SigmaPlot 10.0 software (Systat Software, Inc., San Jose, CA, USA). To prepare a sigmoid prediction curve for induced peak data, Hill equation reflecting the binding to ligand and macromolecule was obtained with an OriginPro 9.0 software (Origin, MA, USA). The formula used was y = Vmin + (Vmax − Vmin) × [x]^n/([IC50]^n + [x]^n), where Vmin was the minimum current, Vmax was the maximum current, IC50 was the maximum half inhibitory effect percentage of inhibitory activation by KAE, [x] was the concentration of serotonin or KAE, and n was the interaction-coefficient. Statistical significance was considered when p-value was less than or equal to 0.05 (p ≤ 0.05).

[2] = target: T2, human 5-HT3A receptor T154A mutant (Homo sapiens, UniProt P46098, T176A); test: Two-electrode voltage clamp, I5-HT inhibition, T154A mutant; conditions: −80 mV
T2 sequence (P46098 24-478 T176A): T1 sequence (P46098 24-478) with T153A
Procedure: as §1, §2, §3
The voltage relationship experiment for confirming the relationship between induce-inward current and voltage, the voltage was varied from −80 mV to +60 mV using a ramp protocol. […] All recording data were analyzed using Clampfit 9.0 (Molecular Devices, San Jose, CA, USA). […]
(§5) All presented experiments were performed at least three times for scientific verification. […] Induced-inward current data were analyzed with SigmaPlot 10.0 software (Systat Software, Inc., San Jose, CA, USA). […]

[3] = target: T3, human 5-HT3A receptor D177A+F199A double mutant (Homo sapiens, UniProt P46098, D199A/F221A); test: Two-electrode voltage clamp, I5-HT inhibition, D177A+F199A double mutant
T3 sequence (P46098 24-478 D199A/F221A): T1 sequence (P46098 24-478) with D176A, F198A
Procedure: as §1, §2, §3, §4
Point mutation was performed using Pfu DNA polymerase (Quikchange II Site-Directed Mutagenesis Kit). Chimeric primer design for PCR was performed under appropriate primer design guidelines. To remove methylated cDNA, Dpn I was used. Transformation of the mutated DNA used pGEM vector. pDNA was purified using a miniprep protocol. […]
as §5

[4] = read-out: Emax of serotonin concentration-response

**Q.** With `O=c1c(O)c(-c2ccc(O)cc2)oc2cc(O)cc(O)c12` [KAE, kaempferol] as the molecule, how does the “Maximum-inhibitory percentage (Imax)” value [1] read?
**A.** Its value is 79.3 ± 4.5%.

**Q.** What about the Vmax [1] of the same molecule?
**A.** The Vmax was 79.3 ± 4.6%.

**Q.** And the “efficacy of antagonist against I5-HT(100uM) of 5-HT3A” value [1]?
**A.** Its value is 79.3 ± 4.6%.

**Q.** And the Hill coefficient ([1]; Hill equation fit, Figure 1D, serotonin 100 μM, −80 mV)?
**A.** Its Hill coefficient is 0.9 ± 0.1.

**Q.** What about the “competitive or non-competitive manner of inhibition” value ([1]; KAE fixed, serotonin 1–300 μM, Figure 2B) of the same molecule?
**A.** The value was “non-competitive manner”.

**Q.** And the IC50 ([1]; Wild type, −80 mV, Table 1)?
**A.** Its IC50 is 23.4 ± 8.3 µM.

**Q.** What about the “n (Hill coefficient)” value ([1]; Wild type, −80 mV, Table 1) of the same molecule?
**A.** Its value is 1.2 ± 0.3.

**Q.** And the Emax at 10 µM [1, 4]?
**A.** The Emax at 10 µM was 79.3 ± 4.8%.

**Q.** What about the Emax at 100 µM [1, 4] of the same molecule?
**A.** The Emax at 100 µM was 37.7 ± 1.2%.

**Q.** What about the “inhibitory manner (reversibility)” value ([1]; serotonin and KAE 100 μM, Figure 1B) of the same molecule?
**A.** Its value is “reversible inhibitory manner”.

**Q.** What about the “voltage dependence of inhibition” value ([1]; voltage ramp −80 to +60 mV, KAE 10 and 100 μM, serotonin 100 μM) of the same molecule?
**A.** Its value is “voltage-independent manner”.

**Q.** And the IC50 [2]?
**A.** The IC50 was 33.4 ± 7.9 µM.

**Q.** And the Vmax [2]?
**A.** Its Vmax is 73.5 ± 9.4%.

**Q.** What about the “n (Hill coefficient)” value [2] of the same molecule?
**A.** The value was 1.1 ± 0.4.

**Q.** What about the “n (Hill coefficient)” value ([3]; D177A+F199A, −80 mV) of the same molecule?
**A.** The value was 1.3 ± 0.4.

**Q.** And the IC50 ([3]; D177A+F199A, −80 mV, Table 1)?
**A.** The IC50 was 42.9 ± 10.2 µM.

**Q.** What about the Vmax ([3]; D177A+F199A, −80 mV, Table 1) of the same molecule?
**A.** The Vmax was 11.9 ± 1.2%.

**Q.** And the Imax ([3]; D177 and F199 double-mutant, Figure 5D)?
**A.** The Imax was 11.9 ± 1.2%.
